Measured values from ChEMBL document CHEMBL3856226, “N-(2-Alkyleneimino-3-phenylpropyl)acetamide Compounds and Their Use against Pain and Pruritus via Inhibition of TRPA1 Channels” (ACS Med Chem Lett, 2016).
pIC50: −log10 of the molar value.

Target: Transient receptor potential cation channel subfamily A member 1 (Homo sapiens, UniProt O75762)
Assay: Inhibition of cinnamaldehyde-activated full length human TRPA1 channel expressed in 293T-Rex cells monitored at 5 sec interval by manual patch clamp electrophysiological method
Assay type: cell-based

Sequence of Transient receptor potential cation channel subfamily A member 1 (O75762 whole entry): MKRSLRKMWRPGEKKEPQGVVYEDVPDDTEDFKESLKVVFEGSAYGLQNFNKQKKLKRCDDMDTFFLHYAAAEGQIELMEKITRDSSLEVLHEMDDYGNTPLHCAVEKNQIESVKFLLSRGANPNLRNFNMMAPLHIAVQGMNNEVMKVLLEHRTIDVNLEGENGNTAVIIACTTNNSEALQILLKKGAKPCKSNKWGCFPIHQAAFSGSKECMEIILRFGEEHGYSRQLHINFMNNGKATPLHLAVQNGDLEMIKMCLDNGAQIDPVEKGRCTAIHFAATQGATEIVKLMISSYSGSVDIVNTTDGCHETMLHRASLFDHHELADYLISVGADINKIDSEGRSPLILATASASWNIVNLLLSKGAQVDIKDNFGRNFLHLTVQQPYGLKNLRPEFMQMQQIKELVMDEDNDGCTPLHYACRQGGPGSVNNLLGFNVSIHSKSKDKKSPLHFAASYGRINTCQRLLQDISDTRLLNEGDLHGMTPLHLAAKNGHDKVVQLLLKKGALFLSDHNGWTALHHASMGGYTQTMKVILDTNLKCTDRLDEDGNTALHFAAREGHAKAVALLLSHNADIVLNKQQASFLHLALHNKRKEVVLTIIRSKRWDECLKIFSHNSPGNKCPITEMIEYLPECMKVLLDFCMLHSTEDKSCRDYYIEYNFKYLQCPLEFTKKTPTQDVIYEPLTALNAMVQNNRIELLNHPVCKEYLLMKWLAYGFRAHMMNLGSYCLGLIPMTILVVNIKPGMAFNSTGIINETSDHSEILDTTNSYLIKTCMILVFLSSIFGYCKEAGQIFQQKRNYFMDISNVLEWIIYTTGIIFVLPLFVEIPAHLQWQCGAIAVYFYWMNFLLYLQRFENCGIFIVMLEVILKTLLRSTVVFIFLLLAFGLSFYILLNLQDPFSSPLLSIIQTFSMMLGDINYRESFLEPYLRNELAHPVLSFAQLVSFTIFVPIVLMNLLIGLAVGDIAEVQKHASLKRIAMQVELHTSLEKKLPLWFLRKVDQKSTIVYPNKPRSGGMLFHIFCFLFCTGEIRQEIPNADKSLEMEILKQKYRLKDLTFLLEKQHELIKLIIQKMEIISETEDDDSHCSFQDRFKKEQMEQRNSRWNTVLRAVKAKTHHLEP

pIC50 | Compound
9.00 | O=C(NCC(Cc1ccccc1)N1CCC(O)(C(F)(F)F)CC1)C1(c2ccc(Cl)cc2)CCCC1 (stereo not drawn)
7.20 | N#Cc1ccc(CC(CNC(=O)C2(c3ccc(Cl)cc3)CCCC2)N2CCC(O)(C(F)(F)F)CC2)cc1 (stereo not drawn)
8.40 | O=C(NCC(Cc1ccccc1)N1CCC(O)(C(F)(F)F)CC1)C1(c2ccc(F)cc2)CCCCC1 (stereo not drawn)
7.92 | O=C(NCC(Cc1ccc(Br)cc1)N1CCC(O)(C(F)(F)F)CC1)C1(c2ccc(Cl)cc2)CCCC1 (stereo not drawn)

Continued, compound first:

Compound | pIC50
O=C(NCC(Cc1ccc(F)cc1)N1CCC(O)(C(F)(F)F)CC1)C1(c2ccc(Cl)cc2)CC1 (stereo not drawn) | 8.70
O=C(NCC(Cc1ccccc1)N1CCC(O)(C(F)(F)F)CC1)C1(c2ccc(Cl)cc2)CC1 (stereo not drawn) | 7.85
CC(C)(C(=O)NCC(Cc1ccccc1)N1CCC(O)(C(F)(F)F)CC1)c1ccccc1 (stereo not drawn) | 7.37
O=C(NCC(Cc1ccccc1)N1CCC(C(F)(F)F)CC1)C1(c2ccc(Cl)cc2)CCCC1 (stereo not drawn) | 8.15
